According to ChEMBL document CHEMBL1201862, “PubChem BioAssay data set” (2004):
The source made the active and inactive calls.

What was measured:
[1] = biological target: Potassium voltage-gated channel subfamily KQT member 2 (Rattus norvegicus, UniProt O88943); assay: rat KCNQ2 current potentiators – automated patch clamp, KCNQ2-CHO cells, SAR follow-up (AID 493113); assay type: functional
[2] = system: Escherichia coli; assay: microbe, parasite or virus in culture
[3] = biological target: Hexokinase-1 (Homo sapiens, UniProt P19367); assay: hexokinase 1 activity inhibitors, potency – biochemical, set 2, resazurin fluorescence coupled readout, selectivity assay for HKDC1 inhibitor project, SAR follow-up (AID 588356); assay type: functional
[4] = biological target: T1, Hexokinase HKDC1 (Homo sapiens, UniProt Q2TB90); assay: analog inhibition of human HKDC1 activity – biochemical, set 2, SAR follow-up (AID 588355); assay type: functional
T1 sequence (Q2TB90 whole entry): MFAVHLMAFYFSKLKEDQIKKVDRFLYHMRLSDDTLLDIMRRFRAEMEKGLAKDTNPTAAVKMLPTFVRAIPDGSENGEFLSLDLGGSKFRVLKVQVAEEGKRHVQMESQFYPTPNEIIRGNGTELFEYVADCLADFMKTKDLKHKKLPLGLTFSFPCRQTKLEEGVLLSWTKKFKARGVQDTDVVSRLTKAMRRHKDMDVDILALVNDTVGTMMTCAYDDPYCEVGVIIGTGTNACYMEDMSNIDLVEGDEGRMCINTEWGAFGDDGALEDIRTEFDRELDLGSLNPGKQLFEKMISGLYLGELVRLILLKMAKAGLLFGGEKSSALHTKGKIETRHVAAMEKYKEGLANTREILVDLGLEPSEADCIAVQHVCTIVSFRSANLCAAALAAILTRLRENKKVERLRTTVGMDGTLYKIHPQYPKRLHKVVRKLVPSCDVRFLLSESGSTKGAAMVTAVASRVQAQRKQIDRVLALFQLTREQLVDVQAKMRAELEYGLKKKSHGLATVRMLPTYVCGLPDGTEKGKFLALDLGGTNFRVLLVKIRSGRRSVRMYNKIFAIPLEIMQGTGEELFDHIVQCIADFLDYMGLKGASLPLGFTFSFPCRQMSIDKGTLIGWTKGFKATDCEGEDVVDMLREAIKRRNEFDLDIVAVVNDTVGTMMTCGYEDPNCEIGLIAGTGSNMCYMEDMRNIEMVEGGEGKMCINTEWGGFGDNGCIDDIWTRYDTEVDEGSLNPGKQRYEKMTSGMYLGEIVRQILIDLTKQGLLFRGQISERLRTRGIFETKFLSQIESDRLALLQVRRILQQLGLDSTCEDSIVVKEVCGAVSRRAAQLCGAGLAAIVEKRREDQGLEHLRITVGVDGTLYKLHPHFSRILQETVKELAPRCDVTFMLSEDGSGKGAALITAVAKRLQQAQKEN

[5] = system: HeLa; assay: ATP-based viability loss in HeLa cells – cell-based, CellTiter-Glo luminescence, cherry-pick samples, cytotoxicity control for MITF activator project, dose response (AID 540259); assay type: functional; conditions: Homo sapiens
[6] = biological target: SUMO E1/E2 (Homo sapiens, UniProt P63279+Q9UBE0+Q9UBT2); assay: SAR analysis of SUMOylation using HTRF in an in-Vitro dose response assay. [Related pubchem assays (depositor defined):AID2006, AID2011, AID2018, AID2069, AID2658]; assay type: functional
[7] = decrease of insulin promoter-GFP reporter – imaging, high-content screening, mouse beta cells (AID 1628); assay type: functional; conditions: MIN6
[8] = cells; assay type: functional, cell-based
[9] = cells; assay type: functional, cell-based; remark: listed apart in the source
[10] = MIN6 cell viability loss – mouse insulinoma, cytotoxicity control, dose response (AID 2122); assay type: functional;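 note: confirmatory high-throughput counterscreen run to flag cytotoxic compounds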
[11] = biological target: Nonstructural protein 1 (Influenza A virus, UniProt Q194T2); assay type: functional, Influenza A virus (A/California/07/2009(H1N1))
[12] = system: Streptococcus; assay: GAS UMAA2166 growth inhibition – luminescence, BacTiterGlo, counter-screen for streptokinase expression inhibitor project, dose response (AID 1915); assay type: functional, organism-based;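 note: potency for reduction of bacterial viability or growth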
[13] = NIH-3T3 fibroblast cytotoxicity, dose response, cytotoxicity control, cell-based, fluorescence, Alamar Blue, secondary assay (AID 2327); assay type: functional;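 note: NIH-3T3 mouse fibroblasts cultured with fluconazole at 8 µg/mL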
[14] = system: Streptococcus sp. 'group A'; assay: Streptococcus pyogenes SK(-)GAS viability under kanamycin – luminescence, BacTiterGlo, confirmation, counter-screen for streptokinase expression inhibitor project, dose response (AID 1900); assay type: functional, organism-based
[15] = biological target: T2, Streptokinase A (Streptococcus pyogenes serotype M1, UniProt P10520); assay: viability-normalized secreted streptokinase activity reduction – plasminogen activation absorbance, OD405, dose response (AID 1914); assay type: functional, Streptococcus pyogenes M1 GAS;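 note: secreted streptokinase activity via plasminogen activation per viability signal from cell pellet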
T2 sequence (P10520 whole entry): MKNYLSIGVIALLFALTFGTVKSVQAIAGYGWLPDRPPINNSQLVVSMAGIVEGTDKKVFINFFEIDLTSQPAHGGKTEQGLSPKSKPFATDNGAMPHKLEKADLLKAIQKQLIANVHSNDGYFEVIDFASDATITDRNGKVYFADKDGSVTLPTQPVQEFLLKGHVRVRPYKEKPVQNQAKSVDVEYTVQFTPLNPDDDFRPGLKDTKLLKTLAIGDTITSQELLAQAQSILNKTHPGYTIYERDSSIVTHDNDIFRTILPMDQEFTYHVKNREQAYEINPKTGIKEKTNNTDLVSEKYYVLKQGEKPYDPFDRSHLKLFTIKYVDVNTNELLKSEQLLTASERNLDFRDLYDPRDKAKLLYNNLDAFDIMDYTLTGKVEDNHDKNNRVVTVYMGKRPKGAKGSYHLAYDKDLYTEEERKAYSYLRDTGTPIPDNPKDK

[16] = fluconazole-exposed Candida albicans growth modulators – fluorescence, retest, confirmation (AID 2467); assay type: functional, cell-based
[17] = biological target: T3, Sentrin-specific protease 8 (Homo sapiens, UniProt Q96LD8); assay type: functional;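 note: luminescence read-out of SENP8 inhibition, dose-response confirmation following an ultra-high-throughput screen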
T3 sequence (Q96LD8 whole entry): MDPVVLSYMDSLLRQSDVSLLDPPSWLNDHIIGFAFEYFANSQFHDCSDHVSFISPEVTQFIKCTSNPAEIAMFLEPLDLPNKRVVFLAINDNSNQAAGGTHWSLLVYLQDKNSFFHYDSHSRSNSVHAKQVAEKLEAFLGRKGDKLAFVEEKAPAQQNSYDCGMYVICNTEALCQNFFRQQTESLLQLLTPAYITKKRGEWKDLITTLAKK

[18] = biological target: Dual specificity tyrosine-phosphorylation-regulated kinase 1A (Rattus norvegicus, UniProt Q63470); assay type: biochemical, Homo sapiens
[19] = biological target: T4, Sentrin-specific protease 7 (Homo sapiens, UniProt Q9BQF6); assay type: functional;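 note: Luminescence-based dose-response confirmation of ultra-high-throughput screening hits, measuring inhibition of SENP7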
T4 sequence (Q9BQF6 whole entry): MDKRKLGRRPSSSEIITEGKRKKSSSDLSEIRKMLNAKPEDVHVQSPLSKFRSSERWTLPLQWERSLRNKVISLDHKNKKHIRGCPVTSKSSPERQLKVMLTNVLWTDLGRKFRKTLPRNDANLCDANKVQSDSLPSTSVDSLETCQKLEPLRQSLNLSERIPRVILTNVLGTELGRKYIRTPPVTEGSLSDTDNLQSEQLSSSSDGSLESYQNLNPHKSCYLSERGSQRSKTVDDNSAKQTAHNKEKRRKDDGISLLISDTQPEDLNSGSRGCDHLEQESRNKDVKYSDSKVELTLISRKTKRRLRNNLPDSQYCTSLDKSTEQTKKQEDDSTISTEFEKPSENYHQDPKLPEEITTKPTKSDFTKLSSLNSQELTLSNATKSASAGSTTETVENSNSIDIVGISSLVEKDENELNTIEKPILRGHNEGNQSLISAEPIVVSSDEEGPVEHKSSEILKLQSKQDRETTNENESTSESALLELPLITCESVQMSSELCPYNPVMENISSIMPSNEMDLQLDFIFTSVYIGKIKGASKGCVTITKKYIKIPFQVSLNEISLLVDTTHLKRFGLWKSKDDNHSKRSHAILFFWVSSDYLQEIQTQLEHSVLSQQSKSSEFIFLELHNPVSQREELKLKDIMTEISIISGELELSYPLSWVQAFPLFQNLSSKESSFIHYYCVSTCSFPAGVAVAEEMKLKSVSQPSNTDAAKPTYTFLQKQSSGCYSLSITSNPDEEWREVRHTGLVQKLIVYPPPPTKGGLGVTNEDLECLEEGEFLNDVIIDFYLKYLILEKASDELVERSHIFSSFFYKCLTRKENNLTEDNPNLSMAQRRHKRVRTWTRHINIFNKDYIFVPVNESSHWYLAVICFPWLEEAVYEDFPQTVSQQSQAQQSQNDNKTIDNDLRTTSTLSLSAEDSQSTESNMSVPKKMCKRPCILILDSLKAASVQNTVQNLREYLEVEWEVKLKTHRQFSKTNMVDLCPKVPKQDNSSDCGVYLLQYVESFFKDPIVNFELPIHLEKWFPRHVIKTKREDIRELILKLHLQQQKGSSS

[20] = biological target: T5, Sentrin-specific protease 6 (Homo sapiens, UniProt Q9GZR1); assay type: functional;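 note: Luminescence-based dose-response confirmatory assay of SENP6 inhibition, following up an ultra-high-throughput screen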
T5 sequence (Q9GZR1 whole entry): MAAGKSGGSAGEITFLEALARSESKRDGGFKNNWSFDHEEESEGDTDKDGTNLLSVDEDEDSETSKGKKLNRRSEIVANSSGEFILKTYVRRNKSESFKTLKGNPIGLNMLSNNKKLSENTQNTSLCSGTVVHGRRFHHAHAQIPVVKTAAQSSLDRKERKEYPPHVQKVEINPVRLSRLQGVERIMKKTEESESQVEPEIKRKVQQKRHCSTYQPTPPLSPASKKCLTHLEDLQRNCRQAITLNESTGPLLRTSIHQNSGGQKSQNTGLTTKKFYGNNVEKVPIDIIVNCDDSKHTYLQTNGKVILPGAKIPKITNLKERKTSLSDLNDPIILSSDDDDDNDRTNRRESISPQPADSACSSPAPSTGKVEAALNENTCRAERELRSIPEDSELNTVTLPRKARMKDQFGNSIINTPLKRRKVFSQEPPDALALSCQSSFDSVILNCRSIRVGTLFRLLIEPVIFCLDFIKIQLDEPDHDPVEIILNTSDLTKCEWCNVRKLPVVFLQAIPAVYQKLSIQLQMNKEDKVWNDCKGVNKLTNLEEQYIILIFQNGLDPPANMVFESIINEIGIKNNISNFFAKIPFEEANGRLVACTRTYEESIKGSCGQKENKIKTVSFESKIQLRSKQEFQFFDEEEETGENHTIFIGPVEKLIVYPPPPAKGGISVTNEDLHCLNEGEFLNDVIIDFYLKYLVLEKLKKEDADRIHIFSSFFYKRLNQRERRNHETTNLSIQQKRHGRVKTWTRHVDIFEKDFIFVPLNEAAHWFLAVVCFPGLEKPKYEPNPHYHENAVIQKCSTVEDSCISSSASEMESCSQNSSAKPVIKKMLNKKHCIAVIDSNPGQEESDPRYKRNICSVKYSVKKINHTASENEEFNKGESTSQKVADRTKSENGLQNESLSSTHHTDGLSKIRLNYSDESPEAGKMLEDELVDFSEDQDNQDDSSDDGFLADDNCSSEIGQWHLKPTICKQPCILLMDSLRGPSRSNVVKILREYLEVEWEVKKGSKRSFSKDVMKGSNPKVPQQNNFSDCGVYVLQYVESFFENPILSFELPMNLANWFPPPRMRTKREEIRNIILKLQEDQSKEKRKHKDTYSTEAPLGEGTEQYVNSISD

[21] = biological target: T6, Caspase-3 (Homo sapiens, UniProt P42574); assay type: functional;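 note: Dose-response selectivity test against caspase-3 for candidate inhibitors of sentrin-specific proteases (SENPs)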
T6 sequence (P42574 whole entry): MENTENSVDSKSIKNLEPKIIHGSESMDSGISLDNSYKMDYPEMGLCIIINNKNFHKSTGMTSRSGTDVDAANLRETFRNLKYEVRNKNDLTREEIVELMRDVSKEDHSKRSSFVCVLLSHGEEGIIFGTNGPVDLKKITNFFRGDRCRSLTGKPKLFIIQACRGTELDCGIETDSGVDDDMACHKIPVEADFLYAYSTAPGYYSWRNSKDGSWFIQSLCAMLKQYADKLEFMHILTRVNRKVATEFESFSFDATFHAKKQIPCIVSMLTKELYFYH

[22] = biological target: Cytochrome P450 3A4 (Homo sapiens, UniProt P08684);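 note: CYP3A4 tested as one member of a cytochrome P450 panel screen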
Cytochrome P450 3A4, sequence (P08684 whole entry): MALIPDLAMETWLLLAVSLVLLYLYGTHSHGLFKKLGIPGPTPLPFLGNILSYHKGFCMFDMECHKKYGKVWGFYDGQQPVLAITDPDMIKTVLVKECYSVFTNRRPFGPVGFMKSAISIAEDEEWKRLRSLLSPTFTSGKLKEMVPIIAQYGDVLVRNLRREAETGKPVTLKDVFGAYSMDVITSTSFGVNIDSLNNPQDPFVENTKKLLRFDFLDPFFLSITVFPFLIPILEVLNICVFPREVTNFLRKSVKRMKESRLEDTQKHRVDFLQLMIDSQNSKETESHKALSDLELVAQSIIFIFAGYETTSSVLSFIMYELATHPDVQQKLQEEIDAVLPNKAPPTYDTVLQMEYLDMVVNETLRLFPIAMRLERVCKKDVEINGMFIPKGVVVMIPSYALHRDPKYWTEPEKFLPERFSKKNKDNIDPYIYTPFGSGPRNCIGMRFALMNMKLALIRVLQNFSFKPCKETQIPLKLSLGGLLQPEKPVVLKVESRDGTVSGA

Hexokinase-1, sequence (P19367 whole entry): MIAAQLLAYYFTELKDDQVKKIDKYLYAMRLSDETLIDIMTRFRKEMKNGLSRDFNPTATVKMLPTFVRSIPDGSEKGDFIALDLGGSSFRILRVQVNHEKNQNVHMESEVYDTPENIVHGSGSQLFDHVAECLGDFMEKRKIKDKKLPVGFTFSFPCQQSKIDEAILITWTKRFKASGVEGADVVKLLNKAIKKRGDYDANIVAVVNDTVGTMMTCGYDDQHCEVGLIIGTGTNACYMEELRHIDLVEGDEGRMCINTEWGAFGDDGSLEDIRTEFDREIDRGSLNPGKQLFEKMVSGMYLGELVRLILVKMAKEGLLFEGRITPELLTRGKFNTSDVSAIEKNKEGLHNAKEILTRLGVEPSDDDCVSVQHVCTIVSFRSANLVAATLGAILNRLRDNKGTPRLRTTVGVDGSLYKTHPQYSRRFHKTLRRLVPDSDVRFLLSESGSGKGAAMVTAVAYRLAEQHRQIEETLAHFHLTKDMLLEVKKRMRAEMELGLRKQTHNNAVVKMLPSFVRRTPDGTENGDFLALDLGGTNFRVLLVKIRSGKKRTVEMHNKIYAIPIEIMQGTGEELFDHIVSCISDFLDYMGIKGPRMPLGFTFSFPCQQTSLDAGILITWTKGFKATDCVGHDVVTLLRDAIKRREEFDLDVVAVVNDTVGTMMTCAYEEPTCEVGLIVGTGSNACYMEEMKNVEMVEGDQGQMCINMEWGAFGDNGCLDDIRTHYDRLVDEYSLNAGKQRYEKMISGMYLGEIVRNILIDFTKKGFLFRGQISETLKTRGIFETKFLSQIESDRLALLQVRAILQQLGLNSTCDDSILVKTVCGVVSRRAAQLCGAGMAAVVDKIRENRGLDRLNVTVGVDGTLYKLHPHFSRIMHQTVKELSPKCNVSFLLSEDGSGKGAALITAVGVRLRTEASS
Potassium voltage-gated channel subfamily KQT member 2, sequence (O88943 whole entry): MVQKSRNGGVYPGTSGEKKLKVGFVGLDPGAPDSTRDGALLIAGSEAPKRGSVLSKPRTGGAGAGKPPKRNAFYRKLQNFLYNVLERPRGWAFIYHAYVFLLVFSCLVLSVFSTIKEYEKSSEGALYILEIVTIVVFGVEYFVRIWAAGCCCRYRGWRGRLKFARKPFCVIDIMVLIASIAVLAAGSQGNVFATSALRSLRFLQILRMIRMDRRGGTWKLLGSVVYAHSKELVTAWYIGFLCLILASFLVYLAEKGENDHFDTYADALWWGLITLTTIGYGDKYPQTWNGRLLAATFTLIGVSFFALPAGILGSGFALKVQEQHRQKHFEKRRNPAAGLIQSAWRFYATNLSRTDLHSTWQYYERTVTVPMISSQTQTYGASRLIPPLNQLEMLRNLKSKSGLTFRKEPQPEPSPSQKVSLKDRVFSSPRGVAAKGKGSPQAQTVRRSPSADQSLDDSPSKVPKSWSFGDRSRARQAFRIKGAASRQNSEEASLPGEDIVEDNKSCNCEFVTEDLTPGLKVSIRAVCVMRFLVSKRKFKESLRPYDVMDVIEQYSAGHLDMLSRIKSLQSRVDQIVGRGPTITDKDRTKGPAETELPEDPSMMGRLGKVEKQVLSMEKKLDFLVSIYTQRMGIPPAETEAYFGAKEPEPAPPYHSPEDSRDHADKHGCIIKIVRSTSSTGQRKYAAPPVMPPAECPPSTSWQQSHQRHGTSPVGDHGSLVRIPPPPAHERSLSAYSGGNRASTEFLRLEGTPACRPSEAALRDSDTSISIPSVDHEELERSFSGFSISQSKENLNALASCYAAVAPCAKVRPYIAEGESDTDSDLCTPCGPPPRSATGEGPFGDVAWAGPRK
Nonstructural protein 1, sequence (Q194T2 whole entry): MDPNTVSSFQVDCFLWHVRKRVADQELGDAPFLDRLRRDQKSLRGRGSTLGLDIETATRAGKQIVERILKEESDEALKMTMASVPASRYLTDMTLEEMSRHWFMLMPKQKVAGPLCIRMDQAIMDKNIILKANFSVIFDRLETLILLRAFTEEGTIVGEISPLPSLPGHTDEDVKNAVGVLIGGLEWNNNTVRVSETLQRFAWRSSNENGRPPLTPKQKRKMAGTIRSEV
SUMO E1/E2, sequence (Q9UBE0 whole entry): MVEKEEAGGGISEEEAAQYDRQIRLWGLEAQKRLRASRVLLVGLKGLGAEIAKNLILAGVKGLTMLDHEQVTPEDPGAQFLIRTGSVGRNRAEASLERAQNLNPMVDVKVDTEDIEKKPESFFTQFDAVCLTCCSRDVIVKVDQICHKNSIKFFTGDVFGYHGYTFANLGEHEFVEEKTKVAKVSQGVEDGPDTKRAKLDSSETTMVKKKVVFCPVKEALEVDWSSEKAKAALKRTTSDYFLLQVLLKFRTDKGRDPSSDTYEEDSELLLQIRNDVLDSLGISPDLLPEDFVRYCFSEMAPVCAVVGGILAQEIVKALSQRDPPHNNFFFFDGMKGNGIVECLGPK
SUMO E1/E2, sequence (Q9UBT2 whole entry): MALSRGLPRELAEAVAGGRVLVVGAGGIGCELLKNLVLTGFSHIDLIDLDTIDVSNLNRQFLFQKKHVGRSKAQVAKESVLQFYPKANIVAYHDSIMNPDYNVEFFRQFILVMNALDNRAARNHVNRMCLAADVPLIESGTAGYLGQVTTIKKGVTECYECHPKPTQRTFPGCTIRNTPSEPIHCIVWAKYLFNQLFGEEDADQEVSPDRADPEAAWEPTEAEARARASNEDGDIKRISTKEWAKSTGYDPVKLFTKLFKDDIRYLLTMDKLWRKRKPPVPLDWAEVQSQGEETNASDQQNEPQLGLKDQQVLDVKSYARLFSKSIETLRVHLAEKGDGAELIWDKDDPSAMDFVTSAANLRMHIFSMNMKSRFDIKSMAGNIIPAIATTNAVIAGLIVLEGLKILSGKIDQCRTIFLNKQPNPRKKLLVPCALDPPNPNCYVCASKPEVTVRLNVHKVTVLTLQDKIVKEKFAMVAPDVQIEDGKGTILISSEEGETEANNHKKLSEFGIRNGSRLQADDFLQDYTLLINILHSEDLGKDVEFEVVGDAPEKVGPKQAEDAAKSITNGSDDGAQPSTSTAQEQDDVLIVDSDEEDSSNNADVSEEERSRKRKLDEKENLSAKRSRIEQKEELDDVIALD
SUMO E1/E2, sequence (P63279 whole entry): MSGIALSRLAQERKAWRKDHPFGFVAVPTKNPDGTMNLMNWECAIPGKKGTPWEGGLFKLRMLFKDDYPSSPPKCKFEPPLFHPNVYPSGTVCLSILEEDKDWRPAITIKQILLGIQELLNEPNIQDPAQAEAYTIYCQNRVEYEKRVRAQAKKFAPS

## Cc1cccc(NC(=O)C2CC3CCC2C3)c1C (configuration not stated)
[1]
  EC50: 1 µM (active)

## COC(=O)CN1C(=O)N/C(=C/c2ccccc2OC)C1=O
[2]
  AC50: 60.7 µM (active)

## COc1cc2c(cc1OC)-c1cc(Nc3ncn[nH]3)nc(=O)n1CC2
[3]
  IC50: > 80 µM (inactive)
[4]
  IC50: > 80 µM (inactive)

## CC1(C)CC(/C=C/c2ccccc2)=Nc2ccccc2N1
[5]
  AC50: 37.3 µM (active)

## COc1ccc2c(c1)C(NC(C)=O)C(=O)N2CCN1CCOCC1 (configuration not stated)
[6]
  IC50: 9.45 µM (active)
[3]
  IC50: > 80 µM (inactive)
[4]
  IC50: 8.31 µM (active)

## Cc1ccc(NC(=O)C2CC3CCC2C3)cc1 (configuration not stated)
[1]
  EC50: 0.75 µM (active)

## Cc1cc(NC(c2cccnc2)c2ccc3cccnc3c2O)no1 (configuration not stated)
[7]
  IC50: 3.53 µM (active)
[8]
  EC50: > 350 µM (not active)
[9]
  EC50: 11.9 µM (active)
[10]
  IC50: 3.65 µM (active)
[11]
  IC50: 7.09 µM (active)

## Cc1cc(C)c2nc(NCc3ccccc3O)sc2c1
[5]
  AC50: 42.4 µM (active)

## C/C(=C\C(=O)OCCCCCCCCC(=O)O)C[C@@H]1OC[C@H](C[C@@H]2O[C@H]2[C@@H](C)[C@H](C)O)[C@@H](O)[C@H]1O [MUPIROCIN]
[12]
  EC50: < 0.06 µM (active)
[13]
  EC50: > 150 µM (inactive)
[14]
  EC50: < 0.06 µM (active)
[15]
  EC50: 0.423 µM (active)
[2]
  AC50: 4.99 µM (active)
[16]
  EC50: > 38 µM (not active)

## COc1c(O)ccc(/C=C(\C#N)c2nc3ccccc3[nH]2)c1[N+](=O)[O-]
[17]
  IC50: 35.9 µM (active)
[18]
  AC50: 2.77 µM (active)
[19]
  IC50: 15.1 µM (active)
[20]
  IC50: 25.9 µM (active)
[21]
  IC50: 31.1 µM (active)

## O=C(c1ccccc1)c1ccc(OCC(O)CN2CCN(Cc3ccccc3)CC2)cc1 (configuration not stated)
[22]
  AC50: inconclusive
